For one assay, the system named is 2.5 cm dorsal skin wound. Description: Incisional dorsal wound model, wound tensile strength (WTS). The format is in vivo, C3Hf/Kam (H2-k) female mice. The conditions noted are these: for improvement in WTS compared to vehicle-treated controls: topical every other day, seven doses, day 14. The text has this: The skin wounds were surgically clipped on day 0 and mice were followed until day 14 (FIGS. 5A-5B). […] On day 14, the mice were euthanized and the skin containing the wound was removed and mounted in 20 mm strips with a horizontal wound sample in each strip.

Assay [1] deals with CD68+, IL-6+, COX-2+, PECAM-1+ cells. Description: Immunohistochemistry of incisional wounds (CD68, IL-6, COX-2, PECAM-1). The format is in vivo, mice. The text has this: (§1) Dorsal skin wounds from CH3 mice treated with vemurafenib suspension or DMSO in saline control suspension were excised at day 2, 6 and 14. They were fixed in 10% neutral buffered formalin and embedded in paraffin and stained with hematoxylin and eosin (H&E) using standard methods. Balb/c mice were sacrificed at day 2, 6 and 14 with isoflurane overdose. Two 8-mm round pieces of tissue were collected from each Balbc/c mouse containing the whole wound area and the surrounding tissue and skin, cut precisely in half at the midline of the wound and fixed in 1% paraformaldehyde (PFA) for 16-18 hours at 4° C., dehydrated in 70% EtOH, and then paraffin embedded. Sections were cut at 4 μm, deparaffinized with xylene and descendant ethanol, and then incubated in 3% H2O2 for 10 minutes. After a wash in distilled water, the slides were incubated for 25 minutes in citrate buffer pH6 (Invitrogen) at 95° C. using a vegetable steamer. […] The imaging and quantification of the cell-based immunohistochemistry, was performed with the HALO Next Generation Imaging analysis software (Indica Labs; Corrales, N. Mex.). […] The number of pERK+, Ki67+ and PECAM-1+ cells was automatically counted with the HALO software. Three 20× fields of view from each side of the wound were automatically counted for pERK and Ki67 stains. PECAM-1+ and CD68+ cells were automatically counted on each side of the wound edges where the granulation tissue starts (1 mm length each side) on the excisional wound splinting model, and in the entire wound area on the incisional wound model.
To elaborate on the activated pathways associated with the increased presence of wound healing cell subsets at this time point, the genes up-expressed in the vemurafenib-treated wounds were analyzed for enriched GO biological processes 2 fold increase) using ClueGo (Bindea, G. et al., Bioinformatics 25:1091-93 (2009)). […] To confirm these findings, the levels of COX-2+ and IL-6+ cells were quantified by immunohistochemistry. […]

Assay [2] has as its system pERK and Ki67 in BRAF^V600E mutant human melanoma cell line M249. As to the kind of experiment: pERK and Ki67 by western blot and phosphoflow cytometry, M249. The format is cell-based. The conditions noted are these: 1.5 μM vemurafenib vs vehicle. A general note: Immunoblotting shows a protein as a band on a membrane.
Experimental: HEKa and M249 cells treated with a concentration of 1.5 μM of vemurafenib or vehicle control were fixed with formaldehyde to a final concentration of 1.6%, and permeabilized using methanol (90%). Then, they were washed in staining buffer (sterile PBS, 0.5% BSA, 0.01% sodium azide, NaN3), and stained with Alexa Flour 647 mouse anti-ERK1/2 (pT202/pY204) antibody and PE mouse anti-human Ki67 antibody (BD Pharmingen, San Jose, Calif.) as previously described by Comin-Anduix, et al., PLoS One 5:e12711 (2010). After incubation, cells were washed again and resuspended in 3 ml of staining buffer. A total of 30,000 cellular events were acquired for analysis. Data was analyzed using FlowJo (Tree Star Inc., Ashland, Oreg.).
M249 and HEKa cells were treated in duplicate with a concentration of 1.5 μM of vemurafenib or vehicle control.
Another assay deals with PECAM-1+ cells. As to the kind of experiment: Immunohistochemistry of excisional wounds (PECAM-1). Type of assay: in vivo, mice. The conditions noted are these: excisional wound model, day 6; p=0.006.
Source text: as §1, with “minutes.” for “minutes. After a wash in distilled water, the slides were incubated for 25 minutes in citrate buffer pH6 (Invitrogen) at 95° C. using a vegetable steamer.”, “model. […]” for “model.”

Another assay concerns HEKa cells. Description: Soft agar colony forming assay, HEKa. The format is cell-based, human. The conditions noted are these: 1.5 μM vemurafenib. As for the experimental part:
Twenty four-well plates were covered with 300 μl of serum-free RPMI 1640 (Fisher Scientific, Hampton, N.H.) with 0.6% Noble agar (BD Biosciences, San Jose, Calif.), and incubated at 37° C. overnight, until solid. 300 μl of a suspension of HEKa and M249 cells (15,000 cells/ml) in a 1:1 mixture of growth medium with a concentration of 1.5 μM of vemurafenib and growth factor-reduced matrigel (BD Biosciences) was added to each well. After one week, automated colony quantification was performed using a BioSpot Series 5 UV analyzer.
Using these cultures, MAPK signaling was analyzed by western blot (FIGS. 2G-2H); and pERK and cell proliferation were analyzed by quantitative intracellular flow (phosphoflow) cytometry (FIG. 2I and FIGS. 4A-4B). […] Furthermore, in the presence of vemurafinab the proliferative marker Ki67 decreased in M249 melanoma cells while it increased in HEKa cells (FIGS. 21-2J).

For `CCCS(=O)(=O)Nc1ccc(F)c(C(=O)c2c[nH]c3ncc(-c4ccc(Cl)cc4)cc23)c1F` [vemurafenib], the “improvement in WTS compared to vehicle-treated controls” value amounted to 52% in the assay on 2.5 cm dorsal skin wound (Experiment #1), 33% in the assay with 2.5 cm dorsal skin wound (Experiment #2) and 42% with 2.5 cm dorsal skin wound (Experiment #3). Besides, the “improvement in WTS vs. vehicle control” value in the assay with 2.5 cm dorsal skin wound (separate assay, Experiment #4, p=0.01) is 37%. For the same compound, the “macrophages (CD68+ cells) in wounds by IHC” value in assay [1] (day 6, topical) is reported as “increase in macrophages”. Besides, the “increase of PECAM-1+ cells” value in assay [1] (incisional wound model, p=0.02) came to 65%. In assay [1] (proliferation stage, day 6), the “IL-6+ and COX-2+ cells” value is “higher IL-6+ and COX-2+ cells”. In addition, in assay [2], the “pERK in M249” value was “decreased pERK”. The “proliferative marker Ki67 in M249” value in assay [2] is recorded as “decreased”. For the same compound, in the assay on PECAM-1+ cells, the “increase in the number of PECAM-1+ cells compared to control wounds” value turned out to be 74%. Further, the “HEKa colonies in soft agar” value in the assay on HEKa cells (one week) is reported as “HEKa colonies proliferated”. In the assay with HEKa cells (p=0.007), the “mean spot size of HEKa colonies” value is “increased significantly”.

(Values after patent US20190262343A1, “WOUND HEALING USING BRAF INHIBITORS” (THE REGENTS OF THE UNIVERSITY OF CALIFORNIA, priority 2016, published 2019).)
